Assay: Vancomycin pharmacokinetics, serum concentration after IO vs IV delivery
Assay type: in vivo, New Zealand White rabbits
Conditions: rabbit, samples T0-T6, LC-MS/MS (Fig. 7A)

What does the source list for `CN[C@H](CC(C)C)C(=O)N[C@H]1C(=O)N[C@@H](CC(N)=O)C(=O)N[C@H]2C(=O)N[C@H]3C(=O)N[C@H](C(=O)N[C@H](C(=O)O)c4cc(O)cc(O)c4-c4cc3ccc4O)[C@H](O)c3ccc(c(Cl)c3)Oc3cc2cc(c3O[C@@H]2O[C@H](CO)[C@@H](O)[C@H](O)[C@H]2O[C@H]2C[C@](C)(N)[C@H](O)[C@H](C)O2)Oc2ccc(cc2Cl)[C@H]1O` [vancomycin]?
Serum vancomycin profile across time, IO delivery (30 mg/kg IO over 30 min): slight peak but remained at relatively consistent serum levels across time points; Serum vancomycin profile across time, IV delivery (30 mg/kg IV over 30 min): high systemic peak soon after bolus delivery with a steady decline across time
